In patent publication US10118916B2, “Modulators of cystic fibrosis transmembrane conductance regulator protein” (AbbVie S.à.r.l., priority 2016, dated 2018):

Target: T1, F508delCFTR (Homo sapiens, UniProt P13569, DEL508-508)
T1 construct: expressed in transfected cells; host or cells: CFBE41o- (human lung derived epithelial cell line), doxycycline-inducible
Test: Cell Surface Expression-Horse Radish Peroxidase (CSE-HRP) assay
Type: cell-based
Details: CFBE41o-F508delCFTR-HRP cells; for EC50: F508delCFTR cell surface expression, luminescence, 18-24 hours at 33° C., highest concentration 20 μM; for Maximum % activity: maximum at any tested concentration, normalized to on-plate positive control (3 μM)
Source text: Cell Surface Expression-Horse Radish Peroxidase (CSE-HRP) Assay:
A cellular assay for measuring the F508delCFTR cell surface expression after correction with test compounds was developed in human lung derived epithelial cell line (CFBE41o-) (Veit G et al, (2012) Mol Biol Cell. 23(21): 4188-4202). This was achieved by expressing the F508delCFTR mutation along with a horseradish peroxidase (HRP) in the fourth exofacial loop and then measuring the HRP activity using luminescence readout from these cells, CFBE41o-F508delCFTR-HRP, that were incubated overnight with the test corrector compounds. Briefly, for this primary assay, the CFBE41o-F508delCFTR-HRP cells were plated in 384-well plates (Greiner Bio-one; Cat 781080) at 4,000 cells/well along with 0.5 μg/mL doxycycline to induce the F508delCFTR-HRP expression and further incubated at 37° C., 5% CO2 for 72 hours. The test compounds were then added at the required concentrations and further incubated for 18-24 hours at 33° C. The highest concentration tested was 20 μM with an 8-point concentration response curve using a 3-fold dilution. Three replicate plates were run to determine one EC50. All plates contained negative controls (dimethyl sulfoxide, DMSO) and positive controls (3 μM of 3-[(2R,4R)-4-({[1-(2,2-difluoro-1,3-benzodioxol-5-yl)cyclopropyl]carbonyl}amino)-7-methoxy-3,4-dihydro-2H-chromen-2-yl]benzoic acid) as well as on-plate concentration response of the positive control. Post incubation, the plates were washed 5× times with Dulbecco's phosphate buffered saline (DPBS), followed by the addition of the HRP substrate, luminol (50 μL), and measuring the HRP activity using luminescence readout on EnVision® Multilabel Plate Reader (Perkin Elmer; product number 2104-0010). The raw counts from the experiment are analyzed using Accelrys® Assay Explorer v3.3.
Z′ greater than 0.5 was used as passing quality control criteria for the plates.
The Z′ is defined as: 1−[3*SDPositive Control+3*SDNegative Control/Absolute(MeanPositive Control−MeanNegative Control)] wherein “SD” is standard deviation.
The % activity measured at each of the 8 test concentrations of the test compound was normalized to the on-plate positive control using the following formula: % activity=[(test compound response−DMSO response)/(positive control response−DMSO response)]*100
The maximum % activity achieved for the test compound at any tested concentration is presented in Table 1 along with the EC50 calculated using the following general sigmoidal curve with variable Hill slope equation (described as Model 42 in the Accelrys® Assay Explorer v3.3 software): y=(a−d)/(1+(x/c)^b)+d
General sigmoidal curve with concentration, response, top, bottom, EC50 and Hill slope.
This model describes a sigmoidal curve with an adjustable baseline, a. The equation can be used to fit curves where response is either increasing or decreasing with respect to the independent variable, “x”. • “x” is a concentration of drug under test. • “y” is the response. • “a” is the maximum response, and “d” is the minimum response • “c” is the inflection point (EC50) for the curve. That is, “y” is halfway between the lower and upper asymptotes when x=c. • “b” is the slope-factor or Hill coefficient. The sign of b is positive when the response increases with increasing dose and is negative when the response decreases with increasing dose (inhibition).

T1 sequence (P13569 with tags, fused parts or gaps DEL508-508): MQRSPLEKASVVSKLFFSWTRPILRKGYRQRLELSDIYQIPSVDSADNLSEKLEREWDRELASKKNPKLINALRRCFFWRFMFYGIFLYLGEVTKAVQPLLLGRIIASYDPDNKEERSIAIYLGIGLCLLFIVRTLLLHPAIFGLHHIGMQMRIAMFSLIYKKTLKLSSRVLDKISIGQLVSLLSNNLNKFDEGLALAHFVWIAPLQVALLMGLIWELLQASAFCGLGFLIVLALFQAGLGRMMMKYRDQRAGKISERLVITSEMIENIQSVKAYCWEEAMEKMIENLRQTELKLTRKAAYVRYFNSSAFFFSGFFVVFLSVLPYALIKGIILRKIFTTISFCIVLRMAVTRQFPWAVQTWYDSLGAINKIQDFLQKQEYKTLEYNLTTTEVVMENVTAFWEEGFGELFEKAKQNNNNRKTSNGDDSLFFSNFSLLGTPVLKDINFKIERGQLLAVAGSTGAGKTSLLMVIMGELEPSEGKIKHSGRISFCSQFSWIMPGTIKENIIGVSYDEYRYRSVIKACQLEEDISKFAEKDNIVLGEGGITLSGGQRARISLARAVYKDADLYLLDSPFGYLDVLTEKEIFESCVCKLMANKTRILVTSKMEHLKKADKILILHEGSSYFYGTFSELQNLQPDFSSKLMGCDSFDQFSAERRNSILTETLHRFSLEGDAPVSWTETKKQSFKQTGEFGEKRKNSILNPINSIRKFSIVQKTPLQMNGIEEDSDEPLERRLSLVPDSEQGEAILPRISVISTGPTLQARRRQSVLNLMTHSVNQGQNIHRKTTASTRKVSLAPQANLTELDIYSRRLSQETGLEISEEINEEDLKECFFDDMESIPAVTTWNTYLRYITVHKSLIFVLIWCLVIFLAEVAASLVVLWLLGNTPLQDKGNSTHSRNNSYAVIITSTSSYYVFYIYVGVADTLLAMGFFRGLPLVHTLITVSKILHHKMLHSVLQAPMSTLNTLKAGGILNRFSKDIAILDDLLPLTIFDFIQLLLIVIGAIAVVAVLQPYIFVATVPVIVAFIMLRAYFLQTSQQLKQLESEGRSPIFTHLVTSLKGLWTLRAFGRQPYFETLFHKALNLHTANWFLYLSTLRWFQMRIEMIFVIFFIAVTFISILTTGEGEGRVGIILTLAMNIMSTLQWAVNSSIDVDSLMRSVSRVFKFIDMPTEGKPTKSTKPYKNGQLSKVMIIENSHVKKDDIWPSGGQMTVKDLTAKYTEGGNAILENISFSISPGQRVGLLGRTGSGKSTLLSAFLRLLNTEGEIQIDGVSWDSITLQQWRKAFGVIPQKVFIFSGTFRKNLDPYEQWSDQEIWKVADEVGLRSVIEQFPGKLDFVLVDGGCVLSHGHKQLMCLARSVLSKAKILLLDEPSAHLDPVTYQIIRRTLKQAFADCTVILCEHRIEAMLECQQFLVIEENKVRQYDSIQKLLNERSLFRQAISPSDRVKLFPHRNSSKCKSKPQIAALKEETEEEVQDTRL

EC50 | Maximum % activity | Compound
1.1 µM | 32.0% | COc1ccc2c(c1)O[C@@H](c1ccc(C(=O)O)cc1)C[C@H]2NC(=O)C1(c2ccccc2)CC1(F)F (mixture of isomers) [Example 105, 4-{(2R,4R)-4-[(2,2-difluoro-1-phenylcyclopropane-1-carbonyl)amino]-7-methoxy-3,4-dihydro-2H-1-benzopyran-2-yl}benzoic acid]
0.45 µM | 80.8% | COC(=O)c1cccc([C@H]2C[C@@H](NC(=O)C3(C)CCc4cc(C)ccc43)c3ccc(OC)cc3O2)c1 (mixture of isomers) [Example 123, methyl 3-{(2R,4R)-4-[(1,5-dimethyl-2,3-dihydro-1H-indene-1-carbonyl)amino]-7-methoxy-3,4-dihydro-2H-1-benzopyran-2-yl}benzoate]
0.18 µM | 95.5% | COc1ccc2c(c1)O[C@@H](c1ccc(C(=O)O)cc1)C[C@H]2NC(=O)[C@@]1(C)CCc2cc(C)ccc21 (single isomer, unassigned) [Example 9]
0.63 µM | 121.5% | COC(=O)[C@H]1CC[C@@H]([C@H]2C[C@@H](NC(=O)C3(c4ccc5c(c4)OC(F)(F)O5)CC3)c3ccc(OC(F)F)cc3O2)CC1 (single isomer, unassigned) [Example 14D]
0.2 µM | 125.0% | COC(=O)[C@H]1CC[C@H]([C@H]2C[C@@H](NC(=O)C3(c4ccc5c(c4)OC(F)(F)O5)CC3)c3ccc(OC(F)F)cc3O2)CC1 (single isomer, unassigned) [Example 14E]
0.44 µM | 70.7% | COc1ccc2c(c1)O[C@@H](c1cccc(C(=O)O)c1)C[C@H]2NC(=O)[C@]1(C)CCc2cc(C)ccc21 (single isomer, unassigned) [Example 125]
0.65 µM | 72.1% | COc1ccc2c(c1)O[C@@H](c1ccc(C(=O)O)cc1)C[C@H]2NC(=O)[C@]1(C)CCc2cc(C)ccc21 (single isomer, unassigned) [Example 126]
0.55 µM | 110.0% | COc1ccc2c(c1)O[C@@H](c1ccc(C(=O)O)cc1)C[C@H]2NC(=O)C(C)(C)c1ccc2c(c1)OC(F)(F)O2 [Example 1, 4-{(2R,4R)-4-[2-(2,2-difluoro-2H-1,3-benzodioxol-5-yl)-2-methylpropanamido]-7-methoxy-3,4-dihydro-2H-1-benzopyran-2-yl}benzoic acid]
0.15 µM | 95.0% | COc1ccc2c(c1)O[C@@H](c1ccc(C(=O)O)cc1)C[C@H]2NC(=O)C1(c2ccc(Cl)c(Cl)c2)CC1 [Example 2, 4-[(2R,4R)-4-{[1-(3,4-dichlorophenyl)cyclopropane-1-carbonyl]amino}-7-methoxy-3,4-dihydro-2H-1-benzopyran-2-yl]benzoic acid]
1.94 µM | 106.0% | COc1ccc2c(c1)O[C@@H](c1ccc(C(=O)O)cc1)C[C@H]2NC(=O)C1(c2ccc(OC(F)(F)F)cc2)CC1 [Example 3, 4-[(2R,4R)-7-methoxy-4-({1-[4-(trifluoromethoxy)phenyl]cyclopropane-1-carbonyl}amino)-3,4-dihydro-2H-1-benzopyran-2-yl]benzoic acid]
0.26 µM | 94.2% | COc1ccc2c(c1)O[C@@H](c1ccc(C(=O)O)cc1)C[C@H]2NC(=O)C1(c2ccc(Br)cc2)CC1 [Example 4, 4-[(2R,4R)-4-{[1-(4-bromophenyl)cyclopropane-1-carbonyl]amino}-7-methoxy-3,4-dihydro-2H-1-benzopyran-2-yl]benzoic acid]
0.21 µM | 120.0% | COc1ccc2c(c1)O[C@@H](c1ccc(C(=O)O)cc1)C[C@H]2NC(=O)C1(c2ccc(C(F)(F)F)cc2)CC1 [Example 5, 4-[(2R,4R)-7-methoxy-4-({1-[4-(trifluoromethyl)phenyl]cyclopropane-1-carbonyl}amino)-3,4-dihydro-2H-1-benzopyran-2-yl]benzoic acid]
0.09 µM | 95.9% | COc1ccc2c(c1)O[C@@H](c1ccc(C(=O)O)cc1)C[C@H]2NC(=O)C1(c2ccc(C)cc2)CC1 [Example 6, 4-[(2R,4R)-7-methoxy-4-{[1-(4-methylphenyl)cyclopropane-1-carbonyl]amino}-3,4-dihydro-2H-1-benzopyran-2-yl]benzoic acid]
0.16 µM | 90.1% | COc1ccc2c(c1)O[C@@H](c1ccc(C(=O)O)cc1)C[C@H]2NC(=O)C1(C)CCc2cc(C)ccc21 (stereo partly drawn) [Example 7, 4-{(2R,4R)-4-[(1,5-dimethyl-2,3-dihydro-1H-indene-1-carbonyl)amino]-7-methoxy-3,4-dihydro-2H-1-benzopyran-2-yl}benzoic acid]
0.29 µM | 119.0% | CCOC(=O)[C@H]1CC[C@H]([C@H]2C[C@@H](NC(=O)C3(c4ccc5c(c4)OC(F)(F)O5)CC3)c3ccc(OC)cc3O2)CC1 [Example 10, ethyl trans-4-[(2R,4R)-4-{[1-(2,2-difluoro-2H-1,3-benzodioxol-5-yl)cyclopropane-1-carbonyl]amino}-7-methoxy-3,4-dihydro-2H-1-benzopyran-2-yl]cyclohexane-1-carboxylate]
0.07 µM | 135.0% | CCOC(=O)[C@H]1CC[C@H]([C@H]2C[C@@H](NC(=O)C3(c4ccc5c(c4)OC(F)(F)O5)CC3)c3ccc(OC(F)(F)F)cc3O2)CC1 [Example 12, ethyl trans-4-[(2R,4R)-4-{[1-(2,2-difluoro-2H-1,3-benzodioxol-5-yl)cyclopropane-1-carbonyl]amino}-7-(trifluoromethoxy)-3,4-dihydro-2H-1-benzopyran-2-yl]cyclohexane-1-carboxylate]
> 20 µM | 4.0% | COc1ccc2c(c1)OC(c1ccc(OC)c(OC)c1)CC2NC(=O)C1(c2ccccc2)CC(F)(F)C1 (stereo not shown) [Example 16, N-[2-(3,4-dimethoxyphenyl)-7-methoxy-3,4-dihydro-2H-1-benzopyran-4-yl]-3,3-difluoro-1-phenylcyclobutane-1-carboxamide]
3.32 µM | 27.6% | COc1ccc2c(c1)OC(c1ccc(OC)c(OC)c1)CC2NC(=O)C1(c2ccc(F)c(F)c2)CCC1 (stereo not shown) [Example 17, 1-(3,4-difluorophenyl)-N-[2-(3,4-dimethoxyphenyl)-7-methoxy-3,4-dihydro-2H-1-benzopyran-4-yl]cyclobutane-1-carboxamide]
> 20 µM | 5.5% | COc1ccc2c(c1)OC(c1ccc(OC)c(OC)c1)CC2NC(=O)C(C)(C)Oc1ccc(Cl)cc1 (stereo not shown) [Example 18, 2-(4-chlorophenoxy)-N-[2-(3,4-dimethoxyphenyl)-7-methoxy-3,4-dihydro-2H-1-benzopyran-4-yl]-2-methylpropanamide]
1.27 µM | 40.8% | COc1ccc2c(c1)OC(c1ccc(OC)c(OC)c1)CC2NC(=O)C1(c2cccc(F)c2)CC1 (stereo not shown) [Example 19, N-[2-(3,4-dimethoxyphenyl)-7-methoxy-3,4-dihydro-2H-1-benzopyran-4-yl]-1-(3-fluorophenyl)cyclopropane-1-carb oxamide]

Compound | EC50 | Maximum % activity
3-[(2R,4R)-4-{[(2R)-6-chloro-2-methyl-3,4-dihydro-2H-1-benzopyran-2-carbonyl]amino}-7-methoxy-3,4-dihydro-2H-1-benzopyran-2-yl]benzoic acid [Example 65] | 2.14 µM | 27.0%
3-{(2R,4R)-4-[2-(2H-1,3-benzodioxol-5-yl)-2-methylpropanamido]-7-methoxy-3,4-dihydro-2H-1-benzopyran-2-yl}benzoic acid [Example 38] | 0.16 µM | 34.4%
4-[(2R,4R)-4-(2-ethyl-2-phenylbutanamido)-7-methoxy-3,4-dihydro-2H-1-benzopyran-2-yl]benzoic acid [Example 79] | > 20 µM | −0.3%
